Data published in ChEMBL document CHEMBL4507292 (2021).

Legend:
[1] = biological target: Serine/threonine-protein kinase BRSK1 (Homo sapiens) (UniProt Q8TDC3); details: Compound concentration 1000.0 nM
[2] = biological target: Dual specificity protein kinase CLK3 (Homo sapiens) (UniProt P49761); details: Compound concentration 1000.0 nM
[3] = biological target: T1, D(1B) dopamine receptor (Homo sapiens, UniProt P21918); assay: GPCRScan assay: inhibition of D5; set-up: radioligand conc. used [nm] 2.0 – 3.0, parental cells HEKT
[4] = system: Phosphatidylinositol 4,5-bisphosphate 3-kinase catalytic subunit alpha isoform (Homo sapiens), P42336 [E545A]; details: Compound concentration 1000.0 nM
[5] = biological target: Dual specificity tyrosine-phosphorylation-regulated kinase 1A (Homo sapiens) (UniProt Q13627); details: Compound concentration 1000.0 nM
[6] = biological target: Myosin-IIIa (Homo sapiens) (UniProt Q8NEV4); details: Compound concentration 1000.0 nM
[7] = system: Mast/stem cell growth factor receptor Kit (Homo sapiens), P10721 [D816H]; details: Compound concentration 1000.0 nM
[8] = biological target: T1, D(1B) dopamine receptor; details: Compound concentration 10.0 uM
[9] = biological target: Insulin receptor (Homo sapiens, UniProt P06213); details: Compound concentration 1000.0 nM
[10] = biological target: 5'-AMP-activated protein kinase catalytic subunit alpha-2 (Homo sapiens) (UniProt P54646); details: Compound concentration 1000.0 nM
[11] = system: Tyrosine-protein kinase ABL1 (Homo sapiens), P00519 [H396P]; details: Compound concentration 1000.0 nM
[12] = biological target: SRSF protein kinase 1 (Homo sapiens) (UniProt Q96SB4); details: Compound concentration 1000.0 nM
[13] = biological target: Tyrosine-protein kinase Tec (Homo sapiens) (UniProt P42680); details: Compound concentration 1000.0 nM
[14] = system: Tyrosine-protein kinase ABL1 (Homo sapiens), P00519 [E255K]; details: Compound concentration 1000.0 nM
[15] = biological target: cAMP-dependent protein kinase catalytic subunit beta (Homo sapiens) (UniProt P22694); details: Compound concentration 1000.0 nM
[16] = biological target: Serine/threonine-protein kinase TAO1 (Homo sapiens) (UniProt Q7L7X3); details: Compound concentration 1000.0 nM
[17] = biological target: Serine/threonine-protein kinase Chk1 (Homo sapiens) (UniProt O14757); details: Compound concentration 1000.0 nM
[18] = biological target: Activin receptor type-2A (Homo sapiens) (UniProt P27037); details: Compound concentration 1000.0 nM
[19] = biological target: Maternal embryonic leucine zipper kinase (Homo sapiens) (UniProt Q14680); details: Compound concentration 1000.0 nM
[20] = biological target: Mitogen-activated protein kinase kinase kinase 9 (Homo sapiens) (UniProt P80192); details: Compound concentration 1000.0 nM
[21] = biological target: Dual specificity tyrosine-phosphorylation-regulated kinase 2 (Homo sapiens) (UniProt Q92630); details: Compound concentration 1000.0 nM
[22] = biological target: Ribosomal protein S6 kinase alpha-1 (Homo sapiens) (UniProt Q15418); details: Compound concentration 1000.0 nM
[23] = biological target: Proto-oncogene tyrosine-protein kinase ROS (Homo sapiens) (UniProt P08922); details: Compound concentration 1000.0 nM
[24] = biological target: Receptor-interacting serine/threonine-protein kinase 2 (Homo sapiens) (UniProt O43353); details: Compound concentration 1000.0 nM
[25] = biological target: Cyclin-G-associated kinase (Homo sapiens) (UniProt O14976); details: Compound concentration 1000.0 nM
[26] = biological target: ALK tyrosine kinase receptor (Homo sapiens) (UniProt Q9UM73); details: Compound concentration 1000.0 nM
[27] = biological target: Serine/threonine-protein kinase Nek4 (Homo sapiens) (UniProt P51957); details: Compound concentration 1000.0 nM
[28] = biological target: Tyrosine-protein kinase Mer (Homo sapiens) (UniProt Q12866); details: Compound concentration 1000.0 nM
[29] = biological target: Tyrosine-protein kinase ITK/TSK (Homo sapiens) (UniProt Q08881); details: Compound concentration 1000.0 nM
[30] = biological target: Cyclin-dependent kinase 4 (Homo sapiens) (UniProt P11802); details: Compound concentration 1000.0 nM
[31] = biological target: Phosphatidylinositol 5-phosphate 4-kinase type-2 gamma (Homo sapiens) (UniProt Q8TBX8); details: Compound concentration 1000.0 nM
[32] = biological target: Serine/threonine-protein kinase DCLK3 (Homo sapiens) (UniProt Q9C098); details: Compound concentration 1000.0 nM
[33] = biological target: Inhibitor of nuclear factor kappa-B kinase subunit beta (Homo sapiens) (UniProt O14920); details: Compound concentration 1000.0 nM
[34] = biological target: Rhodopsin kinase GRK7 (Homo sapiens) (UniProt Q8WTQ7); details: Compound concentration 1000.0 nM
[35] = biological target: Ephrin type-B receptor 6 (Homo sapiens) (UniProt O15197); details: Compound concentration 1000.0 nM
[36] = biological target: Mu-type opioid receptor (Homo sapiens) (UniProt P35372); details: Compound concentration 10.0 uM
[37] = biological target: Casein kinase I isoform delta (Homo sapiens) (UniProt P48730); details: Compound concentration 1000.0 nM
[38] = biological target: Mitogen-activated protein kinase kinase kinase 14 (Homo sapiens) (UniProt Q99558); details: Compound concentration 1000.0 nM
[39] = system: Mast/stem cell growth factor receptor Kit (Homo sapiens), P10721 [V559D]; details: Compound concentration 1000.0 nM
[40] = system: Serine/threonine-protein kinase B-raf (Homo sapiens), P15056 [V600E]; details: Compound concentration 1000.0 nM
[41] = biological target: cGMP-dependent protein kinase 1 (Homo sapiens) (UniProt Q13976); details: Compound concentration 1000.0 nM
[42] = biological target: Serine/threonine-protein kinase pim-1 (Homo sapiens) (UniProt P11309); details: Compound concentration 1000.0 nM
[43] = biological target: 5-hydroxytryptamine receptor 7 (Homo sapiens) (UniProt P34969); details: Compound concentration 10.0 uM
[44] = biological target: Myotonin-protein kinase (Homo sapiens) (UniProt Q09013); details: Compound concentration 1000.0 nM
[45] = biological target: LIM domain kinase 2 (Homo sapiens) (UniProt P53671); details: Compound concentration 1000.0 nM
[46] = biological target: Mitogen-activated protein kinase 12 (Homo sapiens) (UniProt P53778); details: Compound concentration 1000.0 nM

T1 sequence (P21918 whole entry, canonical isoform): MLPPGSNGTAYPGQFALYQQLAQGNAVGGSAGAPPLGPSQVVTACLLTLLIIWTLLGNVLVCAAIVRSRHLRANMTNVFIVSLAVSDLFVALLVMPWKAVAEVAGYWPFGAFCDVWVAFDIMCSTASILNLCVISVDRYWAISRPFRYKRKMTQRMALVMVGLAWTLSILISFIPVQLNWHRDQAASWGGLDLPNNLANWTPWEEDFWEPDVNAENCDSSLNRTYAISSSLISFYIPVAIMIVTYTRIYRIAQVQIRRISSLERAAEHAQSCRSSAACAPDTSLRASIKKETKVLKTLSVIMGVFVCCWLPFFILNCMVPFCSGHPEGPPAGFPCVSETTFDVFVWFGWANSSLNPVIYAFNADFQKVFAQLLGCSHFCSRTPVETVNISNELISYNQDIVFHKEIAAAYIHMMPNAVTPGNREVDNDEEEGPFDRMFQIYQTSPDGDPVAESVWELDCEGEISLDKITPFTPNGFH
Rhodopsin kinase GRK7 (Homo sapiens), sequence (Q8WTQ7 whole entry): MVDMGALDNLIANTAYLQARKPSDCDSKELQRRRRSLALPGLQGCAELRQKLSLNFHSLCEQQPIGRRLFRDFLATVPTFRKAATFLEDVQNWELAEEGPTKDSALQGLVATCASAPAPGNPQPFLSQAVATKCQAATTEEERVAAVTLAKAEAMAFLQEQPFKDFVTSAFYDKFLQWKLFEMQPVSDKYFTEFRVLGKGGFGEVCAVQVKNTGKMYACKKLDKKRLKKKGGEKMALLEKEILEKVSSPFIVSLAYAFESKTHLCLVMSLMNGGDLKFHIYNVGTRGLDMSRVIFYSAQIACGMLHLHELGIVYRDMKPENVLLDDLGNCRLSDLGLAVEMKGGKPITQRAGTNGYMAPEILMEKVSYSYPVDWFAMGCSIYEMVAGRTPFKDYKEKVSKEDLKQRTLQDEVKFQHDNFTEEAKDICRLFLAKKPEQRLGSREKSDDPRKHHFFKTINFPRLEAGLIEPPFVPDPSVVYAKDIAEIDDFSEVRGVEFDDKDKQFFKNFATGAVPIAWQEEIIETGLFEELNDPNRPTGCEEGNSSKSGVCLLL
Ephrin type-B receptor 6 (Homo sapiens), sequence (O15197 whole entry): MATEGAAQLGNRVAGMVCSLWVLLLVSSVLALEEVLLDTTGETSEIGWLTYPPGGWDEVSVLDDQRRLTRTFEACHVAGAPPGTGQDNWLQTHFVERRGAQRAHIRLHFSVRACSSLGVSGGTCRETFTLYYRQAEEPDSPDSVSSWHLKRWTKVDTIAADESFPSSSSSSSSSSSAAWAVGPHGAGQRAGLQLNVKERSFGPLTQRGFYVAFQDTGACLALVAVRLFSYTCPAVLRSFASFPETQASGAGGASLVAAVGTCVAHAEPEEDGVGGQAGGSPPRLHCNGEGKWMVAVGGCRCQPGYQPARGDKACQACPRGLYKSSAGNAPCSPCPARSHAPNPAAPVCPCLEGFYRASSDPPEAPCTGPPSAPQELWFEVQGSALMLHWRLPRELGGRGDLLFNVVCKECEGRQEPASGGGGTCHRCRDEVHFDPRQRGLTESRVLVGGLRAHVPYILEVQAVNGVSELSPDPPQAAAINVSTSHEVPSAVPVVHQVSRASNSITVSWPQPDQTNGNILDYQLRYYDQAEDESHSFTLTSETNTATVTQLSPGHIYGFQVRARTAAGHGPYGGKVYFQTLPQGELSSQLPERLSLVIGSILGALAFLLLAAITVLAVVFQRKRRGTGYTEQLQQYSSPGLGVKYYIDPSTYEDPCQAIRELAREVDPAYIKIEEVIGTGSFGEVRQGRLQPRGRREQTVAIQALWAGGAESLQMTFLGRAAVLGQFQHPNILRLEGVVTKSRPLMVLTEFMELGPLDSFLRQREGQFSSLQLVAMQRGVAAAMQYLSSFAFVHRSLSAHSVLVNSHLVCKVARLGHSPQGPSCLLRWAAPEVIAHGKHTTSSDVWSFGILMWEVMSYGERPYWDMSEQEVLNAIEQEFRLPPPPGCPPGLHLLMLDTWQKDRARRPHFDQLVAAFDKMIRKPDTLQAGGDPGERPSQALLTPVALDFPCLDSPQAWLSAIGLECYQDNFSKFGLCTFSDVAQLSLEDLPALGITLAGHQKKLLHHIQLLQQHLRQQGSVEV
Myosin-IIIa (Homo sapiens), sequence (Q8NEV4 whole entry): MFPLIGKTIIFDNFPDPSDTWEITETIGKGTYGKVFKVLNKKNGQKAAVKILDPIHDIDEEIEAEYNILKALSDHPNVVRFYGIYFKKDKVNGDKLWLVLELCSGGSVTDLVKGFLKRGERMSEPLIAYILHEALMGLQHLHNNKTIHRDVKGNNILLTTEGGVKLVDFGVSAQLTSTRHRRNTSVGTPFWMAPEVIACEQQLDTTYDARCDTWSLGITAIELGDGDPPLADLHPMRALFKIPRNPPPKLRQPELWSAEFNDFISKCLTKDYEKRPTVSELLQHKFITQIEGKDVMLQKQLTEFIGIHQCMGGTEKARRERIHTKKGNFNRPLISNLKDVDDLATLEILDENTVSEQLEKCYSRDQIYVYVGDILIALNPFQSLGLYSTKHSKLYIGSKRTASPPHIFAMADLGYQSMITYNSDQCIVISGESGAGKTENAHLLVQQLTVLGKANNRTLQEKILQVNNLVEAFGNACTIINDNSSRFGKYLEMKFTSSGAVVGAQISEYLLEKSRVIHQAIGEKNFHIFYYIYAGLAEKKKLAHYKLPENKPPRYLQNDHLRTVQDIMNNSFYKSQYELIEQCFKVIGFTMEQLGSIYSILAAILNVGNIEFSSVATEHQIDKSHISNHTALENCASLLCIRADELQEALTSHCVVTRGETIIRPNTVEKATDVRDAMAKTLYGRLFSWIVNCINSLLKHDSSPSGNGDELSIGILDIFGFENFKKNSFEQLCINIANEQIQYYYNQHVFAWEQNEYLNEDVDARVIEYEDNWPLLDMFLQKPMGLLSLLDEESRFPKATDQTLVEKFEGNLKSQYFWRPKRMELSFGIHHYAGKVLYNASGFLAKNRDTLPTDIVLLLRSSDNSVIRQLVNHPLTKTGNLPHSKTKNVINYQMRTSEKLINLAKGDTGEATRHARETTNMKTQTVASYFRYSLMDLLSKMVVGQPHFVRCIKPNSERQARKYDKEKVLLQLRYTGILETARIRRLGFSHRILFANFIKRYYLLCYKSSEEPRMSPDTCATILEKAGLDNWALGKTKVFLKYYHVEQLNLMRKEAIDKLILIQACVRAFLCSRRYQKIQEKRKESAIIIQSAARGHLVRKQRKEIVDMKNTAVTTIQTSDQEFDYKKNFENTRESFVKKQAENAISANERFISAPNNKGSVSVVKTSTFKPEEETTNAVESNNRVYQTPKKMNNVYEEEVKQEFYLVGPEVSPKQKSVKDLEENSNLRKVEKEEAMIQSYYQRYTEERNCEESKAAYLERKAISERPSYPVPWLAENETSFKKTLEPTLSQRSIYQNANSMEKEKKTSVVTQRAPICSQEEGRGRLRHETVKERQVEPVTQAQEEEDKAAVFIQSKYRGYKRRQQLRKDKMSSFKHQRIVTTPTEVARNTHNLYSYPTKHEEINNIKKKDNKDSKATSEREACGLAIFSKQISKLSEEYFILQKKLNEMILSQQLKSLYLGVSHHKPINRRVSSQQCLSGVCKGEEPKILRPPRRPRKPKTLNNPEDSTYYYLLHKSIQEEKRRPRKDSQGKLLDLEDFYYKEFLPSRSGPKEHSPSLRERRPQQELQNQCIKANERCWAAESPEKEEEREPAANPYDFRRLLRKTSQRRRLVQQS
Dual specificity tyrosine-phosphorylation-regulated kinase 2 (Homo sapiens), sequence (Q92630 whole entry): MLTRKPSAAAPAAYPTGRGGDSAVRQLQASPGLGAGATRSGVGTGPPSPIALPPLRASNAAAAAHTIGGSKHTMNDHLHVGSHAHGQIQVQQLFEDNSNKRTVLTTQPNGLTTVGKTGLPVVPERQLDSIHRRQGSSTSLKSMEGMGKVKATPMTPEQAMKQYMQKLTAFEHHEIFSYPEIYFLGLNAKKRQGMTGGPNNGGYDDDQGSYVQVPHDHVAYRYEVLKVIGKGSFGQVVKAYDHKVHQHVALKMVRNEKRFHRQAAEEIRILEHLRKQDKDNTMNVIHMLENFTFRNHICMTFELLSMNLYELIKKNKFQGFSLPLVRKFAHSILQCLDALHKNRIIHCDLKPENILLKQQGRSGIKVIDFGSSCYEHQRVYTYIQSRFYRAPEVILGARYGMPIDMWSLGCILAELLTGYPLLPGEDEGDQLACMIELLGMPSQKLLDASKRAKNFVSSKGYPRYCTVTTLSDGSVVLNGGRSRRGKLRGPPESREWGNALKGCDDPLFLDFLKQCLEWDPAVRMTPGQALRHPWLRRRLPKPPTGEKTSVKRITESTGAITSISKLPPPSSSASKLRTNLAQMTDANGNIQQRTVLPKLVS
Activin receptor type-2A (Homo sapiens), sequence (P27037 whole entry): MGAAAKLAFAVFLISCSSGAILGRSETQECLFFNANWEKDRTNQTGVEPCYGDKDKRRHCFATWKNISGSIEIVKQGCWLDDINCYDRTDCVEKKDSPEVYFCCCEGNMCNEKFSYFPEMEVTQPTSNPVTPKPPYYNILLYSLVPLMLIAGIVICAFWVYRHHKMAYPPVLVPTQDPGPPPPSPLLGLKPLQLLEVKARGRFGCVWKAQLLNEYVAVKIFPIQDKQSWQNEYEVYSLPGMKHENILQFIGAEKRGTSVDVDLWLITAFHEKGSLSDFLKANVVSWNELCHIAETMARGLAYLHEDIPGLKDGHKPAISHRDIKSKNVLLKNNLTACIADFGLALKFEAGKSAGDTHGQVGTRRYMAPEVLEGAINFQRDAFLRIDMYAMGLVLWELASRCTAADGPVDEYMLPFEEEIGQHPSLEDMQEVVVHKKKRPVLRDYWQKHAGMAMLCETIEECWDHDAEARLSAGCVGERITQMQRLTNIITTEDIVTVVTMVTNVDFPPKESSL

Cc1c(C(=O)O)cc(-c2ccc(C3CCNCC3)cc2)c2ccc(-c3ccc(C(F)(F)F)cc3)cc12 [PPTN-NC]
residual activity [1]: 100% | residual activity [2]: 100% | Ki [3]: 2860 nM | residual activity [4]: 100% | residual activity [5]: 100% | residual activity [6]: 100% | residual activity [7]: 100% | inhibition [8]: 58.1% | residual activity [9]: 100% | residual activity [10]: 100% | residual activity [11]: 99% | residual activity [12]: 100% | residual activity [13]: 100% | residual activity [14]: 96% | residual activity [15]: 84% | residual activity [16]: 100% | residual activity [17]: 100% | residual activity [18]: 87% | residual activity [19]: 100% | residual activity [20]: 92% | residual activity [21]: 100% | residual activity [22]: 100% | residual activity [23]: 100% | residual activity [24]: 100% | residual activity [25]: 100% | residual activity [26]: 100% | residual activity [27]: 100% | residual activity [28]: 91% | residual activity [29]: 100% | residual activity [30]: 100% | residual activity [31]: 100% | residual activity [32]: 100% | residual activity [33]: 100% | residual activity [34]: 91% | residual activity [35]: 100% | inhibition [36]: 12.6% | residual activity [37]: 100% | residual activity [38]: 100% | residual activity [39]: 100% | residual activity [40]: 100% | residual activity [41]: 97% | residual activity [42]: 100% | inhibition [43]: -3.66% | residual activity [44]: 86% | residual activity [45]: 100% | residual activity [46]: 85%

O=C(O)c1cc(-c2ccc(C3CCNCC3)cc2)c2ccc(-c3ccc(C(F)(F)F)cc3)cc2c1 [PPTN]
residual activity [1]: 100% | residual activity [2]: 100% | Ki [3]: 2820 nM | residual activity [4]: 87% | residual activity [5]: 100% | residual activity [6]: 100% | residual activity [7]: 100% | inhibition [8]: 73.7% | residual activity [9]: 100% | residual activity [10]: 100% | residual activity [11]: 86% | residual activity [12]: 86% | residual activity [13]: 100% | residual activity [14]: 87% | residual activity [15]: 100% | residual activity [16]: 100% | residual activity [17]: 100% | residual activity [18]: 100% | residual activity [19]: 98% | residual activity [20]: 100% | residual activity [21]: 100% | residual activity [22]: 100% | residual activity [23]: 100% | residual activity [24]: 100% | residual activity [25]: 100% | residual activity [26]: 100% | residual activity [27]: 100% | residual activity [28]: 85% | residual activity [29]: 100% | residual activity [30]: 100% | residual activity [31]: 100% | residual activity [32]: 100% | residual activity [33]: 100% | residual activity [34]: 85% | residual activity [35]: 96% | inhibition [36]: 19.3% | residual activity [37]: 100% | residual activity [38]: 100% | residual activity [39]: 100% | residual activity [40]: 100% | residual activity [41]: 100% | residual activity [42]: 100% | inhibition [43]: 17.8% | residual activity [44]: 100% | residual activity [45]: 100% | residual activity [46]: 99%
